The results in this text go back to article PMC5648786, “Characterization of a dual function macrocyclase enables design and use of efficient macrocyclization substrates” (Nature Communications, 2017).

The target in test [1] is T1, GmPOPB (Galerina marginata, UniProt H2E7Q8). As to conditions: macrocyclization; 50 mM Tris pH 8.0, 50 mM NaCl, 10 mM DTT, room temperature; GmPOPB 1 μM for 13mer and 14mer, 50 nM for C6S, 20 nM others; duplicates, fit ± SEM.
Description: Comparison between distinct substrates was performed in 50 mM Tris pH 8.0, 50 mM NaCl, 10 mM DTT with varying concentrations of substrates at room temperature. All reactions were performed in duplicates. Reactions were started by adding GmPOPB (50 nM for GmAMA1_C6S, 1 μM for the 13mer and 14mer, and 20 nM for other substrates) to the assay mixture containing buffer and peptide. Reactions were quenched at several time points by adding 50 μL reaction mixture to 20 μL 6% TFA. Reactants were separated from products for quantification by injecting 50 μL of each quenched time point mix onto a ZORBAX SB-C18, 5 µm, 9.4 × 50 mm (Agilent) column connected to an Agilent LC-MS (G6130B Single Quad, Agilent Technologies). Reactants were separated from products using a gradient from H2O containing 0.1% TFA or 0.1% formic acid and 5% acetonitrile to 50% acetonitrile, at 1.5 ml/min for 8 min. […] The sum of product+substrate was assumed equal to the total initial amount of substrate, product converted from % to concentration. This value was divided by concentration of enzyme present to yield v/E t (min^−1). […] For progress curves with the 35mer substrate, measurements were triplicate and quantification relied on ion counts from mass spectrometry. […] Authentic cyclic peptide was quantified by UV absorbance. […] Kinetic data were fitted to a Michaelis–Menten equation using GraphPad Prism, and values reported are average and standard error of the mean.
Test [2] concerns the target T2, GmPOPB-S577A (inactive mutant) (Galerina marginata, UniProt H2E7Q8, S577A).
T2 construct: His-tag (TEV-cleavable) (cleaved yes); made in house; host or cells: E. coli BL21(DE3)
T2 sequence (H2E7Q8 1-730 S577A): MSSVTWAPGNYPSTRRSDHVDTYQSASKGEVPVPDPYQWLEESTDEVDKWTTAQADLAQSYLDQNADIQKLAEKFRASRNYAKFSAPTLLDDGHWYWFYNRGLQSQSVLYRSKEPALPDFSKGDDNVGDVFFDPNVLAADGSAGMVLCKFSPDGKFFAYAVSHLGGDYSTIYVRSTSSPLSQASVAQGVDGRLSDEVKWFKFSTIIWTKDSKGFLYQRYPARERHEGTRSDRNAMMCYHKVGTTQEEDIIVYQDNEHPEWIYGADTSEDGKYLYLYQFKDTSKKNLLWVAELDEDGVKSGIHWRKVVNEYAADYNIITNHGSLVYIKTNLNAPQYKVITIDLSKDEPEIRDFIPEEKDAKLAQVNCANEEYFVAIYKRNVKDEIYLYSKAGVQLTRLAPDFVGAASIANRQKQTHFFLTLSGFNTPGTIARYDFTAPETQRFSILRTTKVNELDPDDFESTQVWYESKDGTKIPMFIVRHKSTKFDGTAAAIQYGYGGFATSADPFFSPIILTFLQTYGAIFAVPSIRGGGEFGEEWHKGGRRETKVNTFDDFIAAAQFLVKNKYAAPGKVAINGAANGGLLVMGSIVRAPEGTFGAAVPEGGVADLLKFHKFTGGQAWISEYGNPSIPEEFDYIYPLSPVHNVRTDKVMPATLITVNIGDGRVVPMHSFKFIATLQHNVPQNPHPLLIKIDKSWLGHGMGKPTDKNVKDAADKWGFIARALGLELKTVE
In words: Isothermal titration calorimetry, peptide binding to inactive mutant GmPOPB_S577A. As to conditions: ITC, 20 °C. On the technique in general: In ITC the heat of successive injections is recorded.

The target in test [3] is T1, GmPOPB. In words: Peptide products formed after 1 h and 16 h reaction of truncated substrates with GmPOPB. Format: biochemical. Further details: His-tag (TEV-cleavable) (cleaved yes); made in house; host or cells: E. coli BL21(DE3). The settings on record: 1 μM GmPOPB, 200 μM peptide substrate, performed twice. As for the experimental part:
The peptides are colored as Fig. 1c with N-terminus at top. Error bars are standard error of the mean from the average of at least two independent measurements (Supplementary Table 3). c Michaelis–Menten curves show both the 13mer and 14mer are substrates for the enzyme. Fitted values for K d, K m, and k cat are shown in Supplementary Tables 2 and 3. Error bars are standard error of the mean from duplicate measurements. d Cyclic peptide produced after 1 h reaction with 1 μM GmPOPB and 200 μM of various peptide substrates. e Peptide produced after 16 h of reaction with 1 μM GmPOPB and 200 μM of various peptide substrates. Peptide sequences are colored as Fig. 1b and detailed in Supplementary Fig. 1
Comparison between distinct substrates was performed in 50 mM Tris pH 8.0, 50 mM NaCl, 10 mM DTT with varying concentrations of substrates at room temperature. All reactions were performed in duplicates. […] Reactants were separated from products for quantification by injecting 50 μL of each quenched time point mix onto a ZORBAX SB-C18, 5 µm, 9.4 × 50 mm (Agilent) column connected to an Agilent LC-MS (G6130B Single Quad, Agilent Technologies). […] For progress curves with the 35mer substrate, measurements were triplicate and quantification relied on ion counts from mass spectrometry. […] Authentic cyclic peptide was quantified by UV absorbance. […]

The target of test [4] is T3, GmPOPB-S577A (Galerina marginata, UniProt H2E7Q8, S577A).
T3 sequence: T2 sequence (H2E7Q8 1-730 S577A)
Description: ITC. As to conditions: both partners purified.

In the next test the target is T4, GmPOPB-H698A (Galerina marginata, UniProt H2E7Q8 1-730, H698A).
T4 sequence: T2 sequence (H2E7Q8 1-730 S577A) with A577S, H698A
In words: crystal structure; co-crystallization of 100 mg/ml protein with two-fold molar excess of peptide, sitting drop, 20 °C, 12.5 mM hexammine cobalt chloride as additive. As to conditions: both partners purified.

For a further test, the target named is T5, GmPOPB-D661A (Galerina marginata, UniProt H2E7Q8 1-730, D661A).
T5 sequence: T2 sequence (H2E7Q8 1-730 S577A) with A577S, D661A
Description: crystal structure. As to conditions: both partners purified.

Test [5] has as its target T3, GmPOPB-S577A. In words: crystal structure. As to conditions: both partners purified.

Substitutions are numbered along the chain they refer to. No end group written: not given here.

Consider IWGIGCNPWTAEHV [14mer], for which the kcat (usually the number of substrate molecules converted per active site and unit of time at saturation) on GmPOPB [1] was 0.00967 ± 0.00167 s⁻¹. Further, in test [2] (GmPOPB_S577A, average ± SEM), the “-TΔS” value is -5.8 ± 0.2 kcal/mol, the ΔG was -6.7 ± 0.1 kcal/mol and the ΔH is -0.9 ± 0.2 kcal/mol. The affinity in test [2] (peptide titrated into GmPOPB_S577A, 50 mM Tris pH 8.0, 50 mM NaCl, 10 mM DTT, single-site model, n fixed at 1.0, average ± SEM of at least 2 measurements), expressed as Kd, was 9.5 ± 1.1 µM. Also, the “Linear product (hydrolysis instead of macrocyclization) after 16 h of reaction” value on GmPOPB [3] is “less linear product”.

Take MFDTNATRLPIWGIGCNPWTAEHVDQTLASGNDIC (also called 35mer peptide) [35mer substrate (amatoxin peptide precursor, full-length substrate)]: the affinity in the test with GmPOPB-S577A [4], expressed as Kd, was 0.12 µM. Also, the binding result in the test with GmPOPB-H698A is reported as “binds”.

For IWGIGCNPWTAEHVDQTLASGNDIC (also called 25mer peptide) [25mer substrate (core, linker and recognition tail)], the binding result in the test with GmPOPB-D661A and with GmPOPB-S577A [5] was “binds” throughout.
